Entries after “also recorded” stand apart in the source; their conditions may differ.
Legend:
MG-63 human osteoblasts = conditions: via activation of the estrogen receptor; cited from earlier work
estrogen receptor = assay: Naringin enhancement of BMP-2 effect with estrogen receptor antagonist ICI182,780 in C2C12; type: cell-based; conditions: FIG. 5
Description: Intracellular distribution of the estrogen receptor in skeletal myoblasts (C2C12) was determined by immuno-fluorescent staining (Milanesi, L., et al., J Cell Biochem, 2008). Naringin bind to estrogen receptor. Inhibition of estrogen receptor abrogate naringin effect. […] However, the mechanism by which naringin exerts its effects is still unclear. From our prelimianry study, there is evidence that naringin acts via estrogen-receptor (ER)-mediated signaling. Cells were cultured with naringin, in combination with 7α,17β-[9[(4,4,5,5,5-pentafluoropentyl)sulfinyl]nonyl] estra-1,3,5(10)-triene-3,17-diol (ICI182,780), a non-specific ERα and ERβ antagonist.

[1] = Collagen sponge implants, subcutaneous or intramuscular bone induction in rats; type: in vivo, rat
Description: Collagen sponge was either blended with naringin solution or covalently crosslinked naringin to collagen sponges. Different doses of BMP-2 were added to the matrices before implantation. Samples were placed intramuscular in thigh muscle. Ten Fisher 344 rats with 180 g in weight were used in this study. Implants were be retrieved 28 days postoperatively. Explants were dissected free of muscle flaps and cut into halves. One half of each explant was used for alkaline phosphatase assay.
Based on these surprising discoveries, the inventors concluded that specific growth factors are needed in addition to naringin for bone to form (FIG. 3).
It will be recognized by one skilled in the art that osteoinductive enhancers are particularly useful in situations where fracture healing is compromised, such as in older people where biosynthetic abilities may be declining, or in situations where not sufficient bone is available for repair. It will also be understood by one of ordinary skill in the art that the addition of growth factors (natural or synthetic) to the naringin containing preparation is essential for osteoinduction.

[2] = test system: Pre-myoblast cell line C2C12; assay: BMP-2 induced ALP activity in C2C12 cell culture; type: cell-based
Description: C2C12 was plated in 96-well culture plate with density of 12.5K/well in 10% FBS/DMEM for 5 hours attachment. […] Cells were incubated at 37° C. for another 48 hours. Cell membrane associated ALP activity was tested by standard ALP assay.
C2C12 was plated in 96-well culture plate with density of 12.5K/well in 10% FBS/DMEM for 5 hours attachment. Medium was changed into 1% testing medium. Forty nano-gram of rhBMP-2 in 10 μl was added in every well and 1-1600 nM of naringin was added 10 minutes later.

[3] = DBM with naringin in abdominal muscle pouches of nude rats, ectopic bone formation; type: in vivo; conditions: optimized dose of naringin
Description: Osteoinductive (OI) activity of human DBM obtained from Tissue Bank with particle size of 210-750 micrometers was tested in vitro with cell culture methods (Han, 2003). DBM were grouped according their OI score.
Two doses of naringin were used to treat DBM particles before implantation. In 50 mg of DBM, 50 micro liter of 100 micromolar or […] of naringin/PBS solution was added into DBM before implantation.
Muscle pouches were created in abdominal muscles bilaterally in nude rats (weighing 120-150 g each) at 6 sites by sharp and blunt dissection. Subsequently, fifty milligrams of three groups of DBM, two doses of naringin/PBS and with PBS alone, were packed into pouches and closed with a single absorbable suture. Implants were retrieved 28 days postoperatively. The recti abdomini muscles were excised as single muscle flaps and placed in cold PBS moisturized paper towels for radiography. Explants were dissected free of muscle flaps and cut into halves. One half of each explant were used for alkaline phosphatase assay and the other half were fixed in 10% neutral buffered formalin solution for 24 hours and decalcified with a decalcifying solution (Stephens Scientific, Riverdale, N.J.) for 48 hours. The decalcified explants were paraffin-embedded and sectioned with a […] microtome. […]

[4] = test system: Rat bone marrow derived stem cells; assay: MTT cell proliferation assay; type: cell-based; conditions: 48 h, FIG. 6
From the text: MTT was used for cell proliferation assay. MTT [3-(4,5-dimethylthiazol-2-yl)-2,5-diphenyltetrazolium bromide] assay is based on the ability of a mitochondrial dehydrogenase enzyme from viable cells to cleave the tetrazolium rings of the pale yellow MTT and form a dark blue formazan crystals which is largely impermeable to cell membranes, thus resulting in its accumulation within healthy cells. Rat bone marrow derived stem cells were selected by pro-plating methods. Cells used in this study were from passages 3-4. 1×10^7 viable cells/mL in culture media containing 10% FCS were dispensed 100 μL per well in 96 well flat bottomed tissue culture plates. Cells were allow to grow with and without naringin and incubated plates in a humidified CO2 incubator at 37° C. for 48 h. 10 μL of MTT solution were added to all wells of 48 h cultured stem cells and incubate for 4 h at 37° C. After washing cells 3 times with PBS, dark blue dye in cells were dissolved with DMSO. After a few minutes at room temperature read plates using a plate reader in dual wavelength measuring system, at 540 nm and a reference wavelength of 630 nm.
Dose dependent of naringin on bone marrow stem cell proliferation was studied. Cell number was assayed by MTT method. […] (see FIG. 6).

osteoblasts = conditions: cited from earlier work

O=c1c(O)c(-c2ccc(O)cc2)oc2cc(O)cc(O)c12 [kaempferol]
alkaline phosphatase activity in MG-63 human osteoblasts (MG-63 human osteoblasts): induced an increase in alkaline phosphatase activity

C[C@]12CC[C@@H]3c4ccc(O)cc4C[C@@H](CCCCCCCCC[S+]([O-])CCCC(F)(F)C(F)(F)F)[C@H]3[C@@H]1CC[C@@H]2O (stereo partly drawn) [ICI, 7α,17β-[9[(4,4,5,5,5-pentafluoropentyl)sulfinyl]nonyl] estra-1,3,5(10)-triene-3,17-diol]
effect of estrogen receptor antagonist on naringin enhancing BMP-2 effect (estrogen receptor): partially block naringin enhancing BMP-2 effect

C[C@@H]1O[C@@H](O[C@H]2[C@H](Oc3cc(O)c4c(c3)O[C@H](c3ccc(O)cc3)CC4=O)O[C@H](CO)[C@@H](O)[C@@H]2O)[C@H](O)[C@H](O)[C@H]1O [naringin]
new bone induction ([1]; collagen sponges with naringin plus growth factors (BMP2 and/or BMP7), subcutaneous or intramuscular model): did induce bone
new bone induction ([1]; naringin alone with collagen carrier, no growth factors, rats): do not induce new bone; also recorded: not sufficient to induce bone; also recorded: no bone was formed; also recorded: no effect
naringin concentration with maximal enhancing ALP effect ([2]; 40 ng rhBMP-2 per well, 1-1600 nM naringin added 10 minutes later, FIG. 4): 800 nM
increase of BMP-2 activity by naringin ([2]; BMP-2 plus naringin versus BMP-2 alone, FIG. 3): four-fold
BMP-2 activity in the ALP assay when naringin is added ([2]; BMP-2 plus naringin, FIG. 3): 0.4
induction of differentiation in osteoprogenitor cells by alkaline phosphatase activity ([2]; C2C12, preliminary results): significant induction of differentiation
effect of naringin on BMP-2 induced ALP activity ([2]; naringin added to BMP-2, C2C12, FIG. 3): increases the upregulation of alkaline phosphatase activity by BMP-2; also recorded: dose dependently increase BMP-2 induced ALP activity
effect of naringin by itself on ALP activity / osteoinductivity ([2]; naringin alone, no BMP-2, C2C12, 48 hours): not enough for osteogenic induction; also recorded: no effect on ALP activity; also recorded: no osteoinductivity at all
DBM activity in regard of ectopic bone formation potential [3]: significantly increased
bone marrow stem cell proliferation (MTT) [4]: inhibits rat bone marrow cell proliferation

O=c1c(O)c(-c2ccc(O)c(O)c2)oc2cc(O)cc(O)c12 [quercetin]
alkaline phosphatase activity in MG-63 human osteoblasts (MG-63 human osteoblasts): induced an increase in alkaline phosphatase activity

O=c1c(-c2ccc(O)cc2)coc2cc(O)ccc12 [daidzein]
increase of viability of osteoblasts (osteoblasts; daidzein 2-50 microM, P<0.05): about 1.4 fold
increase of alkaline phosphatase activity of osteoblasts (osteoblasts; daidzein 2-100 microM, P<0.05): about 1.4 fold
increase of osteocalcin synthesis of osteoblasts (osteoblasts; daidzein 2-100 microM, P<0.05): ~2.0 fold
BMP2 mRNA increase (osteoblasts; osteoblasts): 5.0 fold
BMP2 protein increase (osteoblasts; osteoblasts): 7.0 fold

Source: patent US20080241211A1, “DEVICE WHICH ENHANCES THE BIOLOGICAL ACTIVITY OF LOCALLY APPLIED GROWTH FACTORS WITH PARTICULAR EMPHASIS ON THOSE USED FOR BONE REPAIR” (University of Southern California, priority 2007, published 2008)
